This note sets out measurements from patent US9150574B2, “Enzyme inhibitor compounds” (Proximagen Limited, priority 2011, dated 2015).

One may read the IC50 as the point on the concentration scale where inhibition reaches its midpoint.

The target of the assay is T1, purified recombinantly expressed human SSAO (Homo sapiens, UniProt Q16853).
T1 construct: made in house
T1 sequence (Q16853 29-763 limits assumed): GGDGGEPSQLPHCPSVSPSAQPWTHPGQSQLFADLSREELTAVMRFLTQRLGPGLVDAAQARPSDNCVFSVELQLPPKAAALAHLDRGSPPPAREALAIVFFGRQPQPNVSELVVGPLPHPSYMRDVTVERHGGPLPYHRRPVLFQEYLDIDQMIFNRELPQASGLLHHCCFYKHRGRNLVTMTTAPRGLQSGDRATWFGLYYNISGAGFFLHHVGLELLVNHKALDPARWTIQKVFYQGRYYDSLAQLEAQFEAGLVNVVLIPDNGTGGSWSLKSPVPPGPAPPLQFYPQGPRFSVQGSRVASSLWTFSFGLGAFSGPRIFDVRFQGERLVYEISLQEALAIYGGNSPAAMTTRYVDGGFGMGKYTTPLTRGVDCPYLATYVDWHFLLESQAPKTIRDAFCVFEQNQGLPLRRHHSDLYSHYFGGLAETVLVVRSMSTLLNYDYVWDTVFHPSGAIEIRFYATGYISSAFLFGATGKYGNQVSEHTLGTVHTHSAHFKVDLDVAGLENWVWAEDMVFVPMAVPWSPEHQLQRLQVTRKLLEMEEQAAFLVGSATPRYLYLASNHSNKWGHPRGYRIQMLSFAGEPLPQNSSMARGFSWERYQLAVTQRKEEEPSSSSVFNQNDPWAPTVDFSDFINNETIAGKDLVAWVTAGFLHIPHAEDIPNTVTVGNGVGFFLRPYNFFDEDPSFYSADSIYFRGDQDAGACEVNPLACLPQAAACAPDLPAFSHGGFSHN
The experiment in a line: SSAO enzyme inhibition assay (benzylamine substrate; hydrogen peroxide/HRP-coupled or 14C aldehyde detection). The format is biochemical. The settings on record: human recombinant SSAO, RT, benzylamine as substrate; read-out: SSAO inhibitory activity IC50. The protocol:
All primary assays were performed at RT. with purified recombinantly expressed human SSAO. Enzyme was prepared essentially as described in Ohman et al. (Protein Expression and Purification 46 (2006) 321 331). In addition, secondary- and selectivity assays were performed using SSAO prepared from various tissues or purified rat recombinant SSAO. The enzyme activity was assayed with benzylamine as substrate by measuring either benzaldehyde production, using ^14C-labeled substrate, or by utilizing the production of hydrogen peroxide in a horseradish peroxidase (HRP) coupled reaction. Briefly, test compounds were dissolved in dimethyl sulfoxide (DMSO) to a concentration of 10 mM. Dose-response measurements were assayed by either creating 1:10 serial dilutions in DMSO to produce a 7 point curve or by making 1:3 serial dilutions in DMSO to produce 11 point curves. The top concentrations were adjusted depending on the potency of the compounds and subsequent dilution in reaction buffer yielded a final DMSO concentration ≦2%.
In a horseradish peroxidase (HRP) coupled reaction, hydrogen peroxide oxidation of 10-acetyl-3,7-dihydroxyphenoxazine produced resorufin, which is a highly fluorescent compound (Zhout and Panchuk-Voloshina. Analytical Biochemistry 253 (1997) 169-174; Amplex® Red Hydrogen Peroxide/peroxidase Assay kit, Invitrogen A22188). Enzyme and compounds in 50 mM sodium phosphate, pH 7.4 were set to pre-incubate in flat-bottomed microtiter plates for approximately 15 minutes before initiating the reaction by addition of a mixture of HRP, benzylamine and Amplex reagent. Benzylamine concentration was fixed at a concentration corresponding to the Michaelis constant, determined using standard procedures. Fluorescence intensity was then measured at several time points during 1-2 hours, exciting at 544 nm and reading the emission at 590 nm. For the human SSAO assay final concentrations of the reagents in the assay wells were: SSAO enzyme 1 μg/ml, benzylamine 100 μM, Amplex reagent 20 μM, HRP 0.1 U/mL and varying concentrations of test compound. The inhibition was measured as % decrease of the signal compared to a control without inhibitor (only diluted DMSO). The background signal from a sample containing no SSAO enzyme was subtracted from all data points. Data was fitted to a four parameter logistic model and IC50 values were calculated using the GraphPad Prism 4 or XLfit 4 programs.
SSAO activity was assayed using 14C-labeled benzylamine and analysed by measuring radioactive benzaldehyde. In a white 96-well optiplate (Packard), 20 μL of diluted test compound was pre-incubated at RT. with 20 μL SSAO enzyme for approximately 15 minutes with continuous agitation. All dilutions were made with PBS. The reaction was initiated by adding 20 μL of the benzylamine substrate solution containing [7-14C] Benzylamine hydrochloride (CFA589, GE Healthcare). The plate was incubated for 1 hour as above after which the reaction was stopped by acidification (10 μL 1 M HCl). Then 90 μL Micro Scint-E solution (Perkin-Elmer) was added to each well and the plate was continuously mixed for 15 minutes. Phase separation occurred instantly and activity was read in a Topcount scintillation counter (Perkin-Elmer). In the final reaction well, the human recombinant SSAO concentration was 10 μg/ml. In order to optimize sensitivity, the substrate concentration was decreased as compared to the HRP coupled assay in order to get a higher fraction of radioactive product. In the human SSAO assay, benzylamine concentration was 40 μM (0.2 μCi/mL). Data was analysed as above.
Take `Cc1ccc(-n2cc(N3CCOCC3)c3ccncc32)cc1` [Example 26, 4-[1-(4-Methylphenyl)-1H-pyrrolo[2,3-c]pyridin-3-yl]morpholine]: the IC50 lay within 100 to 500 nM.
In the case of `Oc1cncc2c1c(C1CCNCC1)cn2-c1ccc(Cl)cc1` [Example 27, 1-(4-Chlorophenyl)-3-(piperidin-4-yl)-1H-pyrrolo[2,3-c]pyridin-4-ol] it was less than 100 nM; in that of `CCCCN(C)c1nn(-c2ccc(Cl)cc2)c2cnccc12` [Example 28, N-Butyl-1-(4-chlorophenyl)-N-methyl-1H-pyrazolo[3,4-c]pyridin-3-amine], 500 to 2500 nM; in that of `FCc1ccc(-n2nc(C3CCOCC3)c3ccncc32)cc1` [Example 29, 1-[4-(Fluoromethyl)phenyl]-3-(oxan-4-yl)-1H-pyrazolo[3,4-c]pyridine], 100 to 500 nM.
For `Clc1ccc(-n2nc(C3CCN(Cc4cccnc4)CC3)c3ccncc32)cc1` [Example 30, 3-({4-[1-(4-Chlorophenyl)-1H-pyrazolo[3,4-c]pyridin-3-yl]piperidin-1-yl}methyl)pyridine], the IC50 lay within 100 to 500 nM.
